Data on two compounds can be found in patent publication US20090209019A1, “Bioartificial Renal Tubule” (TOKAI UNIVERSITY EDUCATIONAL SYSTEM, priority 2006, published 2009).

Molecules are shown by their SMILES. Like-named read-outs stand apart in the source and are kept apart here. Marks after values point to notes of the source that are not given here.

The test system of test [1] is Madin-Darby canine kidney (MDCK) cells. The note with it: cells lacking contact inhibition by action of HGF; cited from earlier work.
Test [2] relates to LLC-PK1 cells. The settings on record: 1% DMSO, DMEM-HG, 0 day to third day. As to the method:
On each 6-well plate, 5×10^5 LLC-PK1 cells were seeded. […] Furthermore, two groups of the cells cultured in (4) a DMEM-HG medium and (5) a DMEM-HG medium containing 1% DMSO were checked. The cells on 0 day, the first day, the second day, and the third day after seeding were colored with trypan blue and then measured for number.

The subject of test [3] is LLC-PK1 cells. The settings on record: DMEM medium containing 50 μg/ml U0126 for two weeks. The text has this:
In both groups, the medium was circulated outside the hollow fibers of the module in a closed system. […] On the fourth day after culture, three of the modules of each group were fixed with glutaraldehyde and were then observed in vertical cross section by scanning electron microscopy (SEM).

Test [4] concerns LLC-PK1 cells. The protocol:
In lumens of hollow fibers made of an ethylene-vinyl alcohol (EVAL) copolymer, which forms membranes placed in mini-modules (a membrane area of 65 cm^2), 2×10^8 […] (LLC-PK1) cells, which were porcine proximal renal tubular epithelial cell lines, were seeded. The cells were cultured in such a manner that a DMEM-HG medium was circulated inside and outside the hollow fibers at a rate of 0.25 ml/min. In this operation, the transmembrane pressure was maintained at zero. […] The leakage of urea nitrogen, the leakage of creatinine, the amount of reabsorbed glucose, and the amount of reabsorbed Na^+ were measured for 24 hours.
Method of measuring absorption and leakage: the absorption and leakage are calculated using the following formula:
Absorption rate (leaking rate)=(C0×V0−CI×(VI−VR))/C2V2
wherein C0 represents the concentration of a substance in a discharged external solution, V0 represents the volume of the discharged external solution, CI represents the concentration of the substance in a fed external solution, VI represents the volume of the fed external solution, VR represents the volume of the external solution remaining outside the hollow fibers at the end of an experiment, C2 represents the concentration of the substance in a fed internal solution, and V2 represents the volume of the fed internal solution.

The test system of test [5] is LLC-PK1 cells. The note with it: 50 μM U0126 and 1% DMSO in DMEM-HG, 0 day to sixth day.
Experimental: On each transwell filter unit, 2×10^6 Lewis-lung cancer porcine kidney (LLC-PK1) cells, which were cryopreserved porcine proximal renal tubular epithelial cell lines, were seeded. […] The LLC-PK1 cells on 0 day, the first day, the second day, the third day, and the sixth day after seeding were colored with trypan blue and then measured for number for each group. The LLC-PK1 cells were gently washed with a sterilized PBS solution containing no magnesium or calcium and were then trypsin-treated with 1 ml of a trypsin-EDTA solution at 37° C. for 15 minutes. The treated cells (1 ml) were added to 4 ml of DMEM, were colored with trypan blue, and were then measured for number with a hemocytometer. Measurement was performed three times for each group.
Another test deals with AP-1 transactivation. The note with it: cited from earlier work.
The subject of another test is MEN-1 and MEK-2. The settings on record: cited from earlier work.
Where [6] appears, read: 50 μM U0126, days 3-4, mean ± SEM, n = 4.

Experimental for ERK1/2: In each of 6-well plates, 5×10^5 LLC-PK1 cells were seeded. The cells were divided into three groups on the following day (0 day). […] Then the media (D) and (U) were replaced with a DMEM-HG medium. The cells of each group were further cultured for three days. The cells were subjected to Western blot analysis for ERK1/2 on 0 day, the first day, the second day, the third day, and the sixth day.
The cultured LLC-PK1 cells were used in the form of a cytolytic solution for Western blot analysis. The sampled cells of each group were rinsed with ice-chilled PBS and were then centrifuged at 4° C. for five minutes at 1500 rpm. The centrifugate was collected and then maintained at −80° C.
Proteins were taken from 50 μL of each of ice-chilled cytolytic solutions containing 20 mM Tris-HCl (pH 7.5), 150 mM NaCl, 1 mM Na2EDTA, 1 mM EGTA, 1% Triton, 2.5 mM sodium pyrophosphate, 1 mM β-glycerophosphate, 1 mM Na3VO4 (sodium orthovanadate), and 1 μg/ml leupeptin. The proteins were centrifuged at 4° C. for 15 minutes at 15000×g, whereby soluble proteins were extracted. The protein concentration of each cytolytic solution was measured with a protein assay kit (Protein Assay Rapid Kit; Wako, Osaka, Japan). […] Proteins (20 μg) in each LLC-PK1 cytolytic solution were analyzed with SDS-PAGE (polyacrylamide gel electrophoresis) using a 12.5% polyacrylamide gel (e-PAGEL; ATTO, Tokyo, Japan). […]

For the compound `COc1cccc(-c2cc(=O)c3ccccc3o2)c1N` [PD-98059], in test [1], the “contact inhibition of MDCK cells” value was “restoring the contact inhibition”.
For `N#CC(=C(N)Sc1ccccc1N)C(C#N)=C(N)Sc1ccccc1N` [U0126, 1,4-diamino-2,3-dicyano-1,4-bis[2-aminophenylthio]butadiene], in the test with LLC-PK1 cells [2] (10 μM), the “change in number of LLC-PK1 cells” value is reported as “not sufficiently prevented from increasing in number”. Further, in the test on LLC-PK1 cells [2] (30 μM), the “change in number of LLC-PK1 cells” value is “clearly prevented from proliferating”. Moreover, the “change in number of LLC-PK1 cells” value with LLC-PK1 cells [2] (50 μM) was “clearly prevented from proliferating”. Further, the “maintenance of confluent monolayer in hollow fibers (SEM), FIG. 5 legend” value in the test with LLC-PK1 cells [3] is recorded as “confluent monolayers are substantially maintained”. Besides, in the test with LLC-PK1 cells [4] (50 μM U0126), the “amount of reabsorbed Na+ compared with control group” value was “significantly greater”; the “amount of reabsorbed glucose compared with control group” value was “greater than that in the control group, though there is no significant difference”; the “leakage of creatinine (Cr) compared with control group” value was “less than that in the control group, though there is no significant difference”; the “leakage of urea nitrogen (UN) compared with control group” value was “significantly less”. Further, in the test with LLC-PK1 cells [4] (setting [6]), the “Leakage Cr” value is 3.3 ± 0.5%, the “Leakage UN” value was 3.6 ± 0.7^b %, the “Reabsorption Glucose” value worked out at 63.9 ± 19.7 mg/day and the “Reabsorption Na+” value is 1.26 ± 0.10^b mEq/day. Moreover, in the test on LLC-PK1 cells [5], the “change in number of LLC-PK1 cells” value is reported as “prevented from significantly increasing in number”. The “activated ERK1/2” value in the test with ERK1/2 (50 μM U0126 and 1% DMSO, first, second and third day) was “suppressed”. Moreover, the “activated ERK1/2 after replacing the medium with U0126-free DMEM-HG” value with ERK1/2 (sixth day, three days after removal of U0126) is on record as “Activated ERK1/2 is expressed”. Further, the “contact inhibition of MDCK cells” value in test [1] is given as “restoring the contact inhibition”. The AP-1 transactivation entry in the test with AP-1 transactivation is reported as “suppressor of AP-1 transactivation”. In the test with MEN-1 and MEK-2, the “inhibition of MEK-1 and MEK-2” value was “direct inhibition”.
